Source: PubChem BioAssay (NCI)
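A five-concentration, 48-hour dose response in 96-well plates underlies each endpoint, interpolated linearly between surrounding concentrations. TGI marks complete inhibition of growth.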

Tests used:
Assay in all cases: DTP human tumour cell line panel, 48 h
786-0 renal = test system: 786-0 renal
A498 renal = test system: A498 renal
A549 NSCLC = test system: A549 NSCLC
ACHN renal = test system: ACHN renal
BT-549 breast = test system: BT-549 breast
CAKI-1 renal = test system: CAKI-1 renal
CCRF-CEM leukemia = test system: CCRF-CEM leukemia
COLO 205 colon = test system: COLO 205 colon
DU-145 prostate = test system: DU-145 prostate
EKVX NSCLC = test system: EKVX NSCLC
HCC-2998 colon = test system: HCC-2998 colon
HCT-116 colon = test system: HCT-116 colon
HCT-15 colon = test system: HCT-15 colon
HL-60(TB) leukemia = test system: HL-60(TB) leukemia
HOP-62 NSCLC = test system: HOP-62 NSCLC
HOP-92 NSCLC = test system: HOP-92 NSCLC
HS 578T breast = test system: HS 578T breast
HT29 colon = test system: HT29 colon
IGROV1 ovarian = test system: IGROV1 ovarian
K-562 leukemia = test system: K-562 leukemia
KM12 colon = test system: KM12 colon
LOX IMVI melanoma = test system: LOX IMVI melanoma
M14 melanoma = test system: M14 melanoma
MALME-3M melanoma = test system: MALME-3M melanoma
MCF7 breast = test system: MCF7 breast
MDA-MB-231 breast = test system: MDA-MB-231 breast
MDA-MB-435 = test system: MDA-MB-435
MDA-N = test system: MDA-N
MOLT-4 leukemia = test system: MOLT-4 leukemia
NCI-H226 lung = test system: NCI-H226 lung
NCI-H23 lung = test system: NCI-H23 lung
NCI-H460 lung = test system: NCI-H460 lung
NCI-H522 lung = test system: NCI-H522 lung
OVCAR-3 ovarian = test system: OVCAR-3 ovarian
OVCAR-4 ovarian = test system: OVCAR-4 ovarian
OVCAR-5 ovarian = test system: OVCAR-5 ovarian
OVCAR-8 ovarian = test system: OVCAR-8 ovarian
PC-3 prostate = test system: PC-3 prostate
RPMI-8226 leukemia = test system: RPMI-8226 leukemia
RXF 393 renal = test system: RXF 393 renal
SF-268 CNS = test system: SF-268 CNS
SF-295 CNS = test system: SF-295 CNS
SF-539 CNS = test system: SF-539 CNS
SK-MEL-2 melanoma = test system: SK-MEL-2 melanoma
SK-MEL-28 melanoma = test system: SK-MEL-28 melanoma
SK-MEL-5 melanoma = test system: SK-MEL-5 melanoma
SK-OV-3 ovarian = test system: SK-OV-3 ovarian
SN12C renal = test system: SN12C renal
SNB-19 CNS = test system: SNB-19 CNS
SNB-75 CNS = test system: SNB-75 CNS
SR leukemia = test system: SR leukemia
SW-620 colon = test system: SW-620 colon
T-47D breast = test system: T-47D breast
TK-10 renal = test system: TK-10 renal
U251 CNS = test system: U251 CNS
UACC-257 melanoma = test system: UACC-257 melanoma
UACC-62 melanoma = test system: UACC-62 melanoma
UO-31 renal = test system: UO-31 renal
NCI/ADR-RES ovarian = test system: NCI/ADR-RES ovarian

SMILES: CC(=O)OCC12C(OC(C)=O)C(=O)C3C(OC(C)=O)C14OC3(C)COC(=O)c1cccnc1C(C)C(C)C(=O)OC(C(OC(C)=O)C2OC(C)=O)C4(C)O (stereo unspecified)
- TGI (786-0 renal): > 100 µM
- TGI (A498 renal): > 100 µM
- TGI (A549 NSCLC): > 100 µM
- TGI (ACHN renal): > 100 µM
- TGI (BT-549 breast): > 100 µM
- TGI (CAKI-1 renal): > 100 µM
- TGI (CCRF-CEM leukemia): > 100 µM
- TGI (COLO 205 colon): > 100 µM
- TGI (DU-145 prostate): > 100 µM
- TGI (EKVX NSCLC): > 100 µM
- TGI (HCC-2998 colon): > 100 µM
- TGI (HCT-116 colon): > 100 µM
- TGI (HCT-15 colon): > 100 µM
- TGI (HL-60(TB) leukemia): > 100 µM
- TGI (HOP-62 NSCLC): > 100 µM
- TGI (HOP-92 NSCLC): > 100 µM
- TGI (HS 578T breast): > 100 µM
- TGI (HT29 colon): > 100 µM
- TGI (IGROV1 ovarian): > 100 µM
- TGI (K-562 leukemia): > 100 µM
- TGI (KM12 colon): > 100 µM
- TGI (LOX IMVI melanoma): > 100 µM
- TGI (M14 melanoma): > 100 µM
- TGI (MALME-3M melanoma): > 100 µM
- TGI (MCF7 breast): > 100 µM
- TGI (MDA-MB-231 breast): > 100 µM
- TGI (MDA-MB-435): > 100 µM
- TGI (MDA-N): > 100 µM
- TGI (MOLT-4 leukemia): > 100 µM
- TGI (NCI-H226 lung): > 100 µM
- TGI (NCI-H23 lung): > 100 µM
- TGI (NCI-H460 lung): > 100 µM
- TGI (NCI-H522 lung): > 100 µM
- TGI (OVCAR-3 ovarian): > 100 µM
- TGI (OVCAR-4 ovarian): > 100 µM
- TGI (OVCAR-5 ovarian): > 100 µM
- TGI (OVCAR-8 ovarian): > 100 µM
- TGI (PC-3 prostate): > 100 µM
- TGI (RPMI-8226 leukemia): > 100 µM
- TGI (RXF 393 renal): > 100 µM
- TGI (SF-268 CNS): > 100 µM
- TGI (SF-295 CNS): > 100 µM
- TGI (SF-539 CNS): > 100 µM
- TGI (SK-MEL-2 melanoma): > 100 µM
- TGI (SK-MEL-28 melanoma): > 100 µM
- TGI (SK-MEL-5 melanoma): > 100 µM
- TGI (SK-OV-3 ovarian): > 100 µM
- TGI (SN12C renal): > 100 µM
- TGI (SNB-19 CNS): > 100 µM
- TGI (SNB-75 CNS): > 100 µM
- TGI (SR leukemia): > 100 µM
- TGI (SW-620 colon): > 100 µM
- TGI (T-47D breast): > 100 µM
- TGI (TK-10 renal): > 100 µM
- TGI (U251 CNS): > 100 µM
- TGI (UACC-257 melanoma): > 100 µM
- TGI (UACC-62 melanoma): > 100 µM
- TGI (UO-31 renal): > 100 µM

SMILES: COc1ccc(N2C(=O)C3c4[nH]c5c(C)cccc5c4C4CCC(c5ccccc5)CC4C3C2=O)cc1 (stereo unspecified)
- TGI (786-0 renal): > 100 µM
- TGI (A498 renal): 39.1 µM
- TGI (A549 NSCLC): 24.2 µM
- TGI (ACHN renal): 43.5 µM
- TGI (BT-549 breast): 47.8 µM
- TGI (CAKI-1 renal): 39.3 µM
- TGI (CCRF-CEM leukemia): 4.41 µM
- TGI (COLO 205 colon): 83.9 µM
- TGI (DU-145 prostate): 31.1 µM
- TGI (EKVX NSCLC): 63.4 µM
- TGI (HCT-116 colon): > 100 µM
- TGI (HCT-15 colon): > 100 µM
- TGI (HOP-62 NSCLC): 27.3 µM
- TGI (HOP-92 NSCLC): 41 µM
- TGI (HS 578T breast): 28.6 µM
- TGI (HT29 colon): 21.3 µM
- TGI (IGROV1 ovarian): 33.5 µM
- TGI (KM12 colon): 42.2 µM
- TGI (LOX IMVI melanoma): > 100 µM
- TGI (M14 melanoma): 26 µM
- TGI (MCF7 breast): 21.7 µM
- TGI (MDA-MB-231 breast): 78.2 µM
- TGI (MDA-MB-435): 34.3 µM
- TGI (MDA-N): 34.3 µM
- TGI (NCI-H226 lung): 46.3 µM
- TGI (NCI-H23 lung): 67.7 µM
- TGI (NCI-H460 lung): 18.2 µM
- TGI (NCI-H522 lung): 16.7 µM
- TGI (NCI/ADR-RES ovarian): 66.4 µM
- TGI (OVCAR-3 ovarian): 60.4 µM
- TGI (OVCAR-4 ovarian): 26.6 µM
- TGI (OVCAR-5 ovarian): 28.8 µM
- TGI (OVCAR-8 ovarian): 36.8 µM
- TGI (PC-3 prostate): 28.2 µM
- TGI (RPMI-8226 leukemia): 30.4 µM
- TGI (SF-268 CNS): 20.3 µM
- TGI (SF-295 CNS): 40.2 µM
- TGI (SK-MEL-2 melanoma): 60.8 µM
- TGI (SK-MEL-28 melanoma): 27.9 µM
- TGI (SK-OV-3 ovarian): 34 µM
- TGI (SN12C renal): 59.5 µM
- TGI (SNB-19 CNS): 76.3 µM
- TGI (SNB-75 CNS): 24.4 µM
- TGI (SW-620 colon): 40.5 µM
- TGI (T-47D breast): 28.6 µM
- TGI (TK-10 renal): > 100 µM
- TGI (UACC-257 melanoma): 51.2 µM
- TGI (UO-31 renal): 43.3 µM
